From US20050181376A1, “Antisense modulation of microsomal triglyceride transfer protein expression” (ISIS Pharmaceuticals, Inc., priority 2001, published 2005)
Strand notation (5' to 3'): a small letter for the sugar, then the base; units joined by * are phosphorothioate-linked, units joined directly phosphodiester-linked; [ ] holds rarer units or linkages, { } end groups; capitals alone tell only the bases. e = 2'-O-(2-methoxyethyl) (MOE); [5mC] = 5-methylcytosine; d = 2'-deoxy (DNA)

test system: mouse microsomal triglyceride transfer protein mRNA; test: Antisense inhibition of mouse microsomal triglyceride transfer protein mRNA levels in primary hepatocytes, quantitative real-time PCR; type: cell-based; parameters: concentration or dose not given beside the values; conditions: averages from two experiments
Experimental: Primary mouse hepatocytes were prepared from CD-1 mice purchased from Charles River Labs (Wilmington, Mass.) and were routinely cultured in Hepatocyte Attachment Media (Gibco) supplemented with 10% Fetal Bovine Serum (Gibco/Life Technologies, Gaithersburg, Md.), 250 nM dexamethasone (Sigma), and 10 nM bovine insulin (Sigma). Cells were seeded into 96-well plates (Falcon-Primaria #3872) at a density of 10000 cells/well for use in RT-PCR analysis.
Cells were harvested 16-24 hours after oligonucleotide treatment.
All cytidine residues are 5-methylcytidines. […] Data are averages from two experiments. If present, “N.D.” indicates “no data”.

| Substance | % INHIB (inhibition of mouse microsomal triglyceride transfer protein mRNA levels) |
| --- | --- |
| 144497 (e[5mC]*eT*e[5mC]*eT*e[5mC]*d[5mC]*dT*dT*d[5mC]*dA*dT*d[5mC]*dA*dG*dG*eA*eG*eT*eG*eG; antisense) [compound 144497] | 57% |
| 144498 (eT*eG*eA*e[5mC]*eA*dT*dG*d[5mC]*d[5mC]*dA*dG*d[5mC]*dA*dT*dA*eA*eG*eA*eG*eT; antisense) [compound 144498] | 44% |
| 144499 (e[5mC]*eG*e[5mC]*eT*eG*dA*d[5mC]*dA*dG*dG*dG*dT*d[5mC]*dG*d[5mC]*e[5mC]*eG*eG*eA*eT; antisense) [compound 144499] | 38% |
| 144500 (e[5mC]*e[5mC]*e[5mC]*eT*eT*dT*d[5mC]*dA*d[5mC]*d[5mC]*dA*d[5mC]*dG*d[5mC]*dT*eG*eA*e[5mC]*eA*eG; antisense) [compound 144500] | 34% |
| 144501 (eG*eA*e[5mC]*e[5mC]*eA*d[5mC]*d[5mC]*d[5mC]*dT*dG*dG*dA*dT*d[5mC]*dT*e[5mC]*e[5mC]*eA*eT*eA; antisense) [compound 144501] | 52% |
| 144502 (e[5mC]*eT*e[5mC]*eG*e[5mC]*dG*dA*dT*dA*d[5mC]*d[5mC]*dA*d[5mC]*dA*dG*eA*e[5mC]*eT*eG*eA; antisense) [compound 144502] | 51% |
| 144503 (eG*eT*eT*eA*eT*d[5mC]*dA*d[5mC]*d[5mC]*dA*d[5mC]*dA*dG*d[5mC]*d[5mC]*eA*e[5mC]*e[5mC]*e[5mC]*eG; antisense) [compound 144503] | 50% |
| 144504 (eG*eA*eA*e[5mC]*eT*d[5mC]*d[5mC]*dA*dG*d[5mC]*d[5mC]*d[5mC]*dA*dG*d[5mC]*e[5mC]*eT*e[5mC]*eT*eG; antisense) [compound 144504] | 0% |
| 144505 (eA*eG*e[5mC]*e[5mC]*eT*dT*dG*dT*d[5mC]*d[5mC]*dA*dT*d[5mC]*dT*dG*e[5mC]*eA*eT*eG*e[5mC]; antisense) [compound 144505] | 24% |
| 144506 (e[5mC]*eA*e[5mC]*eA*eT*d[5mC]*d[5mC]*dG*dG*d[5mC]*d[5mC]*dA*d[5mC]*dT*dA*eG*eG*e[5mC]*eT*e[5mC]; antisense) [compound 144506] | 0% |
| 144507 (eT*e[5mC]*eT*e[5mC]*eA*dG*dA*dG*dT*dT*d[5mC]*dT*dG*dT*dT*eG*eA*eT*eG*eG; antisense) [compound 144507] | 0% |
| 144508 (e[5mC]*eG*eT*e[5mC]*eA*dT*dA*dG*d[5mC]*dA*dT*dA*dT*d[5mC]*dG*eT*eT*e[5mC]*eT*eG; antisense) [compound 144508] | 0% |
| 144509 (eA*e[5mC]*eT*eG*eT*dG*d[5mC]*dT*d[5mC]*dT*d[5mC]*dA*dG*dA*dG*eA*eG*e[5mC]*eA*eA; antisense) [compound 144509] | 0% |
| 144510 (eG*eG*eT*e[5mC]*eT*dT*d[5mC]*dT*d[5mC]*d[5mC]*dT*dG*dA*dA*dT*eA*eG*eG*eT*eT; antisense) [compound 144510] | 0% |
| ATTCTGACACAGCTTCCTGA (all phosphorothioate, sugars by position and methylation of C not given here; 2'-MOE wings and deoxy gap) [ISIS 144486, 2′-MOE gapmer phosphorothioate antisense oligonucleotide to mouse MTP] | at least 30% |
| CACCTGCCACTTGCTTCCCG (all phosphorothioate, sugars by position and methylation of C not given here; 2'-MOE wings and deoxy gap) [ISIS 144479, 2′-MOE gapmer phosphorothioate antisense oligonucleotide to mouse MTP] | at least 30% |
| CAGAATGCCAGAGCCAGAGT (all phosphorothioate, sugars by position and methylation of C not given here; 2'-MOE wings and deoxy gap) [ISIS 144495, 2′-MOE gapmer phosphorothioate antisense oligonucleotide to mouse MTP] | at least 30% |
| CAGCCTCAGCATACTTCAGA (all phosphorothioate, sugars by position and methylation of C not given here; 2'-MOE wings and deoxy gap) [ISIS 144488, 2′-MOE gapmer phosphorothioate antisense oligonucleotide to mouse MTP] | at least 30% |
| CCCAGCACCTGGTTTGCCGT (all phosphorothioate, sugars by position and methylation of C not given here; 2'-MOE wings and deoxy gap) [ISIS 144477, 2′-MOE gapmer phosphorothioate antisense oligonucleotide to mouse MTP] | at least 30% |
| CCCTGGTCTCTTCTGCAAGC (all phosphorothioate, sugars by position and methylation of C not given here; 2'-MOE wings and deoxy gap) [ISIS 144478, 2′-MOE gapmer phosphorothioate antisense oligonucleotide to mouse MTP] | at least 30% |
| CCCTTTCACCACGCTGACAG (all phosphorothioate, sugars by position and methylation of C not given here; 2'-MOE wings and deoxy gap) [ISIS 144500, 2′-MOE gapmer phosphorothioate antisense oligonucleotide to mouse MTP] | at least 30% |
| CCTGGAGTATGATACTGCTG (all phosphorothioate, sugars by position and methylation of C not given here; 2'-MOE wings and deoxy gap) [ISIS 144484, 2′-MOE gapmer phosphorothioate antisense oligonucleotide to mouse MTP] | at least 30% |
| CGCTGACAGGGTCGCCGGAT (all phosphorothioate, sugars by position and methylation of C not given here; 2'-MOE wings and deoxy gap) [ISIS 144499, 2′-MOE gapmer phosphorothioate antisense oligonucleotide to mouse MTP] | at least 30% |
| CTCGCGATACCACAGACTGA (all phosphorothioate, sugars by position and methylation of C not given here; 2'-MOE wings and deoxy gap) [ISIS 144502, 2′-MOE gapmer phosphorothioate antisense oligonucleotide to mouse MTP] | at least 30% |
| CTCTGATGTCGTTGCTTGCA (all phosphorothioate, sugars by position and methylation of C not given here; 2'-MOE wings and deoxy gap) [ISIS 144485, 2′-MOE gapmer phosphorothioate antisense oligonucleotide to mouse MTP] | at least 30% |
| CTGCAATTAAGCCTTCCAGC (all phosphorothioate, sugars by position and methylation of C not given here; 2'-MOE wings and deoxy gap) [ISIS 144496, 2′-MOE gapmer phosphorothioate antisense oligonucleotide to mouse MTP] | at least 30% |
| GACCACCCTGGATCTCCATA (all phosphorothioate, sugars by position and methylation of C not given here; 2'-MOE wings and deoxy gap) [ISIS 144501, 2′-MOE gapmer phosphorothioate antisense oligonucleotide to mouse MTP] | at least 30% |
| GCTCGAGGACCTGTCCCACA (all phosphorothioate, sugars by position and methylation of C not given here; 2'-MOE wings and deoxy gap) [ISIS 144480, 2′-MOE gapmer phosphorothioate antisense oligonucleotide to mouse MTP] | at least 30% |
| GTGGCTGACGGGCCCTTCTC (all phosphorothioate, sugars by position and methylation of C not given here; 2'-MOE wings and deoxy gap) [ISIS 144489, 2′-MOE gapmer phosphorothioate antisense oligonucleotide to mouse MTP] | at least 30% |
| GTTATCACCACAGCCACCCG (all phosphorothioate, sugars by position and methylation of C not given here; 2'-MOE wings and deoxy gap) [ISIS 144503, 2′-MOE gapmer phosphorothioate antisense oligonucleotide to mouse MTP] | at least 30% |
